What was measured:
PC3 cells = test: PC3 cell rounding assay; format: cell-based, human; conditions: for inhibition of ephrinA1-Fc induced PC3 cell rounding: 0.5 µg/ml ephrinA1-Fc, 30 minutes
Experimental: PC3 cells were grown on 12-well culture plates and starved overnight in Ham-F12 medium with 0.5% FBS. DMSO (final concentration 0.25%) or compounds were incubated for 20 min, before stimulation with 0.5 µg/ml ephrinA1-Fc or Fc for 30 minutes. During this time cells were observed and pictures were taken from the same field, before and after incubation, under a microscope (Leica, DM IL). Cell rounding was evaluated using ImageJ program.
Cell images were collected from the same field at time 0 and 30 minutes using a digital camera mounted on a Leica DM IL microscope. […] Cells, which rounded their shape and having an area less than 20% of the initial value, were scored as retracting. Data are the means of at least three independent experiments ± st. err. One-way ANOVA followed by Dunnet's post test was performed comparing ephrinA1-Fc+DMSO to all other columns. *, p<0.05, **,p<0.01.

EphB kinases = test: ELISA displacement of biotinylated ephrinB1-Fc from immobilized EphB-Fc ectodomains; format: binding; conditions: biotinylated ephrinB1-Fc at KD concentration
EphA2 = EphA2 (Homo sapiens, UniProt P29317); test: Phosphorylated-EphA2 sandwich ELISA in PC3 cell lysates; format: cell-based; set-up: their known ability to naturally express EphA2; endogenous in cells; host or cells: PC3 (A5); conditions: PC3 cells
Chain of EphA2 (P29317 24-976): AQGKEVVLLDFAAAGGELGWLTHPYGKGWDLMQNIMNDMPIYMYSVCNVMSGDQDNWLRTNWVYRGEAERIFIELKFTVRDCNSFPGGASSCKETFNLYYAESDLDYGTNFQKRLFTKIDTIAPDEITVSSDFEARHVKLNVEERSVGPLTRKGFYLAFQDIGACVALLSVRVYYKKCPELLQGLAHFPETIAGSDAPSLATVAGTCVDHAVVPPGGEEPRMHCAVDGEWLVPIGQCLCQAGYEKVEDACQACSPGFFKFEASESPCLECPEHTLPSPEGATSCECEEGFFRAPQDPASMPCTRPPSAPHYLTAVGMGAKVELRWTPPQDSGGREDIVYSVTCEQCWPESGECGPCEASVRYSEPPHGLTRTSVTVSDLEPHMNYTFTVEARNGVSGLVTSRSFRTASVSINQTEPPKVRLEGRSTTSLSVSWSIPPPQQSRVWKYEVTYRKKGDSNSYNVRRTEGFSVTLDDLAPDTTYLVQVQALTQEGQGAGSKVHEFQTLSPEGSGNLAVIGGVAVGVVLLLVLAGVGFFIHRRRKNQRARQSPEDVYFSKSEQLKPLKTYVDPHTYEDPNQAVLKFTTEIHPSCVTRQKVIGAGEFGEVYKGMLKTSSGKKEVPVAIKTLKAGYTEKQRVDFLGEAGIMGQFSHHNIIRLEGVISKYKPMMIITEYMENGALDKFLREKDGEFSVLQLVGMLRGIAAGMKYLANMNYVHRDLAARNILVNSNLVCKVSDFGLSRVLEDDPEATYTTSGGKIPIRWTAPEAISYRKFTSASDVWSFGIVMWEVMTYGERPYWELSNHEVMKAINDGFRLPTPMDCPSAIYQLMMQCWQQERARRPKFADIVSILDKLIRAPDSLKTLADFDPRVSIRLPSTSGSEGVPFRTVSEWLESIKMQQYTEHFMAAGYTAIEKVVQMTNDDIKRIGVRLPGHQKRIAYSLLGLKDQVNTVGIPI
Experimental: (§1) Cells were seeded in 12-well plates at concentration of 10^5cells/ml in complete medium until they reached ∼40% confluence and serum starved overnight. The day after cells were treated with compounds under study, vehicle or standard drug, stimulated with the proper agonist, rinsed with sterile PBS and solubilized in lysis buffer. The lysates were resuspended and rocked at 4°C for 30 minutes and then centrifuged at 14000 xg for 5 minutes. The protein content of supernatant was measured with BCA protein assay kit (Thermo scientific), standardized to 200 µg/ml and transferred into a clean test tube ready to be used.
(§2) EphA2-, EphB4- and EGFR-phosphorylation were measured in cell lysates using DuoSet®IC Sandwich ELISA (RnD Systems, #DYC4056, #DYC4057 and #DYC1095, respectively) following manufacturer's protocol. […] The day after wells were washed and blocked for 1 hour at room temperature. After that, wells were washed and 100 µl/well of lysates were added at room temperature for 2 hours; wells were washed and incubated with Detection Antibody at room temperature for 2 hours.
EphB4 phosphorylation was stimulated with 3 µg/ml ephrinB2-Fc, preclustered with 0.3 µg/ml IgG Fc fragment on T47D cells (G, H, I). […] Phospho-EphA2/B4 levels are relative to ephrinA1/B2-Fc+DMSO. Data are the means of at least three independent experiment ± st. err. One-way ANOVA followed by Dunnet's post test was performed comparing Fc to all other columns for Fig A, D, G and ephrinA1-Fc+DMSO to all other columns for Fig B,C,E, F, H, I. *, p<0.05, **, p<0.01.

EGFR [1] = molecular target: T1, EGFR (Homo sapiens, UniProt P00533); test: Phosphorylated-EGFR sandwich ELISA in HT29 cells; format: cell-based; conditions: 100 µM, 10 ng/ml EGF
T1 sequence (P00533 25-1210): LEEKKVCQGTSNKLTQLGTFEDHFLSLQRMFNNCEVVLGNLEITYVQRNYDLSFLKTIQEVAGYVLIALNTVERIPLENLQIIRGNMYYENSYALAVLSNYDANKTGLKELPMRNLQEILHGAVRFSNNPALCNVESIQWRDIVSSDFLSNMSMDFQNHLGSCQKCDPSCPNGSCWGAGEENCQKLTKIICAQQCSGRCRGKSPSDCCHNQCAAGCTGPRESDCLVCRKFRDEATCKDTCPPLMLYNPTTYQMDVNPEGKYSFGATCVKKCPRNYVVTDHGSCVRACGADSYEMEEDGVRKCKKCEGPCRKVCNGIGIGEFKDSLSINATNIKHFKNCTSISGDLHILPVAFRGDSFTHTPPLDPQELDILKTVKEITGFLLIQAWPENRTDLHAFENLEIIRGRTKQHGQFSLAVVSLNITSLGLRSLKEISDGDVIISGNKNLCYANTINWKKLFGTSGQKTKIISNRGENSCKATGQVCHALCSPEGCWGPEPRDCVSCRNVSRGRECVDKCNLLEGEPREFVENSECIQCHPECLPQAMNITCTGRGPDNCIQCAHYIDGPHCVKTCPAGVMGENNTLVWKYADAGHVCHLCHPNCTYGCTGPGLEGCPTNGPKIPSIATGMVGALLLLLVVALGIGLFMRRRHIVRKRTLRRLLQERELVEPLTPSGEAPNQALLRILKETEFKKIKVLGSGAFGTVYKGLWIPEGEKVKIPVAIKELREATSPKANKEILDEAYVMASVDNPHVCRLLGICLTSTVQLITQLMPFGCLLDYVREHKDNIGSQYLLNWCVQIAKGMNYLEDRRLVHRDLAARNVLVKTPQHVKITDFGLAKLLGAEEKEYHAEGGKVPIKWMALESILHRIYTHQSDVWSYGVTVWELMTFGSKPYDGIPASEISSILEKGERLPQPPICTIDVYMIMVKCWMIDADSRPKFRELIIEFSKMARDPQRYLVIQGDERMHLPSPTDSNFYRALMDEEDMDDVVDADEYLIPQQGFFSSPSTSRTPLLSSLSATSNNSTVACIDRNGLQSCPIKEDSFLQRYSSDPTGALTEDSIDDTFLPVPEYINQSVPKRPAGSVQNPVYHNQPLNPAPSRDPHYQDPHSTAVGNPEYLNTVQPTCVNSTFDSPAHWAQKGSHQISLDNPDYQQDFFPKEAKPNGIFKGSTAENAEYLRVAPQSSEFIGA
Experimental: as §1, §2
(§3) A, B) EGFR phosphorylation was induced by 30 ng/ml and 10 ng/ml EGF on PC3 (A) and HT29 (B) cells, respectively. […] Data are the means of two experiments ± st. err.

IRKβ = molecular target: T2, IRKβ (Homo sapiens, UniProt P06213); test: IRKβ activity, alpha Technology; format: cell-based; conditions: 100 µM, 100 nM insulin
T2 construct: in HepG2 or A431 cells, respectively; endogenous in cells; host or cells: HepG2 according to b24; A431 according to the order in the legend b55
T2 sequence (P06213 763-1382 limits assumed): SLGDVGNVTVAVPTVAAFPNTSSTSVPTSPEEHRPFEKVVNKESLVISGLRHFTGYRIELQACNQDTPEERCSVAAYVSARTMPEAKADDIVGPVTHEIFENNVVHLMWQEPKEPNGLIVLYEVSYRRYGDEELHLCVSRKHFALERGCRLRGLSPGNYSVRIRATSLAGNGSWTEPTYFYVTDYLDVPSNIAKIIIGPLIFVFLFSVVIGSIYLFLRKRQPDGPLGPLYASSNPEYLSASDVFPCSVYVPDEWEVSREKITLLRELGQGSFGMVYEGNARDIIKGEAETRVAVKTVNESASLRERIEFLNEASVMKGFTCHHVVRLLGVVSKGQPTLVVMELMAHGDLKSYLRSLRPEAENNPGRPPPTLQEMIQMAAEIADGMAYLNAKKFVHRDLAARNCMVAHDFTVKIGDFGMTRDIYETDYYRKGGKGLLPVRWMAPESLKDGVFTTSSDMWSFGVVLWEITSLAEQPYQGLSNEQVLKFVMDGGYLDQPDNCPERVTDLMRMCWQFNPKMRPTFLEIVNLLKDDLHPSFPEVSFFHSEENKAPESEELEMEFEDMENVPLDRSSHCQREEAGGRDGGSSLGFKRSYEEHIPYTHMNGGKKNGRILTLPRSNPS
T2 sequence (P06213 28-758 partner limits assumed): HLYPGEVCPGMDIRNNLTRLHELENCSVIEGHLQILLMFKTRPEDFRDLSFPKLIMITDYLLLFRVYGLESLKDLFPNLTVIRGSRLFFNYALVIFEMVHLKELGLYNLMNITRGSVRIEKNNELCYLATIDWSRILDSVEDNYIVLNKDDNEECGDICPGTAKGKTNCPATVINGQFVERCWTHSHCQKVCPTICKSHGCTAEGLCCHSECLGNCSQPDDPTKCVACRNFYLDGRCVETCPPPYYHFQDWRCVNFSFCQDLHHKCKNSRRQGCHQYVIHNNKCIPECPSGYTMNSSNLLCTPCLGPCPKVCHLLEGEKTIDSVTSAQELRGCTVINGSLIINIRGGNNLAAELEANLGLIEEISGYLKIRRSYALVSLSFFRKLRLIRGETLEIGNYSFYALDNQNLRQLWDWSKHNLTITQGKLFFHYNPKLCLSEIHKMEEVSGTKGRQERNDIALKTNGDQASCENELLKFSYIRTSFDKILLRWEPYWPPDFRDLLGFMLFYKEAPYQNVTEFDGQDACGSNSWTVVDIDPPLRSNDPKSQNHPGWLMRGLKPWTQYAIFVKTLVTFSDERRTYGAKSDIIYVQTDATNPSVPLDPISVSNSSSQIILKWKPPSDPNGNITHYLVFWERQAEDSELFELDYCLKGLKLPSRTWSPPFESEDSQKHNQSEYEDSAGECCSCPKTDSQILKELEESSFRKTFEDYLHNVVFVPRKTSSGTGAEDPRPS
Experimental: (§4) Cells were stimulated with 5 nM IGF1 or 100 nM insulin for 10 minutes, lysed and a fluorescence acceptor (alphaLISA protein A beads coated with anti-phospho-IRKβ or -IGFR1β) added for 2 hours. A fluorescence donor (streptavidin coupled-beads) coated with an antibody towards IRKβ or IGFR1β was incubated for 2 hours and the signal was measured at λex = 680 nm and λem = 500 nm and 600 nm using a microplate reader (EnVision, Perkin Elmer, Waltham, MA, USA).
(§5) These assays were performed at CEREP (Celle L'Evescault, France).
as §3

EphA kinases = test: ELISA displacement of biotinylated ephrinA1-Fc from immobilized EphA-Fc ectodomains; format: binding; conditions: biotinylated ephrinA1-Fc at KD concentration
Experimental: Our chemical collection (Table S1) was stocked in a 20 mM dimethyl sulfoxide (DMSO) solution and we performed binding assay at a concentration of 200 µM. Only compounds displacing more than 40% ephrinA1 from EphA2 receptor were considered for a full concentration-binding curve. […] The day after wells were washed three times with washing buffer (PBS +0.05% tween20, pH 7.5) and blocked with 300 µl of blocking solution (PBS +0.5% BSA) for 1 hour at 37°C. Compounds were added to the wells at proper concentration in 1% dimethyl sulfoxide (DMSO) and incubated at 37°C for 1 hour. Biotinylated ephrinA1-Fc (R&D BT602) was added at 37°C for 4 hours at 30 ng/ml in displacement assays or in a range from 1 to 2000 ng/ml in saturation studies. […] The reaction was stopped with 3N HCl 100 µl/well and the absorbance was measured using an ELISA plate reader (Sunrise, TECAN, Switzerland) at 450 nm.
Data are the means of at least three independent experiments ± st. err.

IGFR1β = molecular target: T3, IGFR1β (Homo sapiens, UniProt P08069); test: IGFR1β activity, alpha Technology; format: cell-based; conditions: 100 µM, 5 nM IGF1
T3 construct: in HepG2 or A431 cells, respectively; endogenous in cells; host or cells: A431 according to b24; HepG2 according to the order in the legend b55
T3 sequence (P08069 741-1367 limits assumed): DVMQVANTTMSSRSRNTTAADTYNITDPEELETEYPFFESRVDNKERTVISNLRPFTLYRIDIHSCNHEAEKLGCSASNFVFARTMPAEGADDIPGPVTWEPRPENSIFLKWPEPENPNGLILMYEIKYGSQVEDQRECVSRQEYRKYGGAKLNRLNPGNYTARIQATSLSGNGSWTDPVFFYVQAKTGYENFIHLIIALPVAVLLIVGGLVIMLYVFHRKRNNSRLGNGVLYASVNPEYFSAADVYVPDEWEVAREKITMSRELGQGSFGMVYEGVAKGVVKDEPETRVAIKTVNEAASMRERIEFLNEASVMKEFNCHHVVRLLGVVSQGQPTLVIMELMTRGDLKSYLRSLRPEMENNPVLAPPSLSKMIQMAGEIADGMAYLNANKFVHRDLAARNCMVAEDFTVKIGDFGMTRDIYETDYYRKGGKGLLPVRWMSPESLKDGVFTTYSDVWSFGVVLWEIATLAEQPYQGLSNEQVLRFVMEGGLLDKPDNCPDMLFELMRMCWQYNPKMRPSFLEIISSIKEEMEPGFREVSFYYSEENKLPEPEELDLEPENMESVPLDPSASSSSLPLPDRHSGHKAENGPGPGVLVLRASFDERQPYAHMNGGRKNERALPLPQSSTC
T3 sequence (P08069 31-736 partner limits assumed): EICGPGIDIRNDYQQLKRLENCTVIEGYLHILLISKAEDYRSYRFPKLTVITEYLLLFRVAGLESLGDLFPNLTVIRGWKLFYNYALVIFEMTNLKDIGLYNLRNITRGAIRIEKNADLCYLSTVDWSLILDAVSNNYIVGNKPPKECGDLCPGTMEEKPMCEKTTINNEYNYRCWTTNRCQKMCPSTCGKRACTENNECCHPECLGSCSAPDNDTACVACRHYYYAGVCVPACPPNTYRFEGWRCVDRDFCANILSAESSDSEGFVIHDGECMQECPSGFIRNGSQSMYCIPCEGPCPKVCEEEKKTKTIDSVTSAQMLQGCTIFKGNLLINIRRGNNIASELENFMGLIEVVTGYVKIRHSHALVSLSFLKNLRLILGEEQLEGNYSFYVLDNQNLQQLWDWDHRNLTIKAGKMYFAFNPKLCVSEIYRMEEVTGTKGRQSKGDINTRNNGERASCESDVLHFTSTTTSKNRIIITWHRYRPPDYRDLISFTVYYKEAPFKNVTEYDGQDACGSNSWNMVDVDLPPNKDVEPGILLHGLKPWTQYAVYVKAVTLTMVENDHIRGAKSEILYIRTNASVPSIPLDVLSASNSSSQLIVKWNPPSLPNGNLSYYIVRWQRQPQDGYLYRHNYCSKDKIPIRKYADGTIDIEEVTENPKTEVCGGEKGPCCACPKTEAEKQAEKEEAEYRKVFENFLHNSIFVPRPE
Experimental: as §4, §5, §3

EGFR [2] = molecular target: T1, EGFR; test: Phosphorylated-EGFR sandwich ELISA in PC3 cells; format: cell-based; conditions: 100 µM, 30 ng/ml EGF
Experimental: as §1, §2, §3

PC3, HT29 and T47D cells = test: MTT cell viability assay; format: cell-based, human; conditions: concentrations studied in phosphorylation studies; 2 hours incubation
Experimental: Cell viability was evaluated using the MTT colorimetric assay. Cells were plated in 96-well plates at a density of 10^5cells/ml and the day after treated with compounds or 0.5% DMSO for 2, 24, 48, or 72 hours. MTT was added at the final concentration of 1 mg/ml and incubated for 2 hours. The resulting formazan crystals were washed with PBS 100 µl/well and then solubilized with DMSO 200 µl/well. The absorbance was measured at 550 nm using an ELISA plate reader and the results were expressed as the ratio between absorbance of the cell treated with the compounds and untreated cells.
Supplementary file pone.0018128.s003.pdf: Figure S2 Cytotoxicity of bile acids on PC3, HT29 and T47D cells after 2 hours of incubation with the indicated compounds. Data are means±SEM. (PDF) Click here for additional data file.

## C[C@H](CCC(=O)O)[C@H]1CC[C@H]2[C@@H]3CC[C@@H]4C[C@H](O)CC[C@]4(C)[C@H]3CC[C@]12C [LCA, lithocholic acid]
PC3 cells; 10 µM
  inhibition of ephrinA1-Fc induced PC3 cell rounding: inactive
PC3 cells; 100 µM
  inhibition of ephrinA1-Fc induced PC3 cell rounding: blocked cell rounding
PC3 cells; incubated with Fc for 30 minutes
  changes in PC3 cell morphology by compound alone: Neither DMSO 0.25% nor LCA alone induced changes in cell morphology
EphB kinases
  displacement of ephrin-B1-Fc ectodomain from immobilized EphB-Fc ectodomains: dose-dependently displaced
EphA2; 10 µM
  inhibition of EphA2 phosphorylation: subthreshold
EphA2; 100 µM
  inhibition of EphA2 phosphorylation: inhibiting completely
EGFR [1]
  effect on EGF-induced EGFR phosphorylation: completely inactive
IRKβ
  effect on IRKβ activity as agonist or antagonist: failed to affect activity
EphA kinases
  displacement of ephrin-A1-Fc ectodomain from immobilized EphA-Fc ectodomains: dose-dependently displaced
IGFR1β
  effect on IGFR1β activity as agonist or antagonist: failed to affect activity
EGFR [2]
  effect on EGF-induced EGFR phosphorylation: completely inactive
PC3, HT29 and T47D cells
  toxicity (MTT): devoid of any toxicity
